In the METLIN SMRT retention time set (Domingo-Almenara et al. 2019):

Test: gradient 5% acetonitrile 3 min, to 50% in 2 min, to 85% in 15 min, held 3 min, 100 µL/min
Conditions: column: Zorbax Extend-C18 2.1 x 50 mm; eluents: water / acetonitrile, 0.1% formic acid
Method in brief: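 The system's dead and dwell volumes were 40 μL and 900 μL, with a Zorbax Extend-C18 column (2.1 × 50 mm, 1.8 μm) run at 100 μL/min in water and acetonitrile containing 0.1% formic acid each. Pure standards were analyzed in mixtures of ~100 molecules by HPLC–quadrupole time-of-flight mass spectrometry in positive and negative ionization mode. Retention time was assigned from computationally picked, manually inspected adduct peaks.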

Row | Structure (SMILES) | RP-LC retention time [s]
1 | O=C(Cc1c(F)cccc1Cl)NCC(=O)N1CCN(c2ccccn2)CC1 | 605
2 | Cc1ccc(-c2ccc(N3CCCC(C(=O)N4CCC5(CC4)OCCO5)C3)nn2)cc1C (stereo not drawn) | 684
3 | c1ccc(-c2nnc(-c3cccnc3NCc3ccc4c(c3)OCO4)o2)cc1 | 1160
4 | O=C(Cn1ccn2nc(-c3ccc(F)cc3)c(CO)c2c1=O)Nc1ccc2c(c1)CCC2 | 908
5 | CCCNC(=O)c1nc(-c2ccc3c(c2)OCC(=O)N3CC)no1 | 821
6 | CC(C)c1nc2cc3c(cc2n1CC(=O)Nc1ccc2c(c1)OCCO2)OCCO3 | 654
7 | CC(=O)NC(C)c1nc(-c2ccc(Cl)cc2)no1 (stereo not drawn) | 777
8 | Fc1cccc(-c2nc3ncccn3c2NCc2ccc(Cl)cc2)c1 | 834
9 | Cc1noc(-c2nn(C)c3c2CN(C(=O)NC(C)C)CC3)n1 | 640
10 | CCC(CC)NC(=O)C1CCN(c2cn[nH]c(=O)c2)C1 (stereo not drawn) | 612
11 | CC(C)CN1CCn2cc(S(=O)(=O)NCc3ccccc3F)cc2C1=O | 792
12 | Cc1ccc(-c2cc3c(=O)n(Cc4noc(CN5CCOCC5)n4)ccn3n2)cc1C | 777
13 | CCCNC(=O)C1CCCN(c2ccc(SCC(=O)Nc3cc(OC)cc(OC)c3)nn2)C1 (stereo not drawn) | 673
14 | CCN(CC)CCNC(=O)CSCc1ccc(C)cc1 | 631
15 | O=C1c2ccccc2C(=O)c2c(O)c(NCCNCCO)cc(O)c21 | 653
16 | CCOC(=O)c1ccc(NC(=O)Cn2nc3c(Oc4ccccc4)nccn3c2=O)cc1 | 852
17 | O=C(Cc1ccc2c(c1)OCO2)Nc1nc2c(s1)Cc1ccccc1-2 | 878
18 | O=C(c1ccc2c(c1)OCO2)N1CCC2(CC1)N=C(c1ccc(Cl)cc1)NO2 | 956
19 | COc1ccc2nc3oc(C(=O)NCCN4CCN(C)CC4)cc3cc2c1 | 597
20 | CC(C)CC(=O)N1CCc2nc(-c3ccccc3)ncc2C1 | 868
21 | CSc1ccc(CNC(=O)c2ccc3ccnc(N4CCN(C(=O)c5ccco5)CC4)c3c2)cc1 | 732
22 | COc1ccc(-c2nc(C)cc3nn(CC(=O)Nc4cc(C)cc(C)c4)c(=O)n23)cc1 | 906
23 | O=C(c1c(F)cccc1F)N1CCN=C1N1CCN(c2cccc(Cl)c2)CC1 | 765

Row | Structure (SMILES) | RP-LC retention time [s]
24 | Cc1ccc(-n2nc(C(=O)Nc3ccc4c(c3)OCCO4)c3ncn(C)c(=O)c32)cc1 | 887
25 | Cc1ccc(NC(=O)Cn2c(=O)n(-c3ccccc3)c(=O)c3c2cc(C)n3C)cc1F | 868
26 | CCN(CCNC(=O)CCc1cc2ccc(C)cc2[nH]c1=O)Cc1ccccc1 | 639
27 | Cc1nnc2cc(N3CCN(C(=O)Nc4ccccc4Cl)CC3)cnn12 | 567
28 | Cn1c(-c2cccc(C(=O)NCc3ccc(F)cc3F)c2)nc2cccnc21 | 743
29 | CC(=O)c1ccc(NC(=O)Cn2cc(-c3ccccc3)c3ncn(C4CC4)c(=O)c32)cc1 | 846
30 | Cc1ccc(C)c(N2CCN(c3ccnc(SCC(=O)NCc4ccc(F)cc4)n3)CC2)c1 | 908
31 | Cc1nc(OCC(=O)NCc2ccc(F)cc2)c2ccccc2n1 | 705
32 | CCN1C(=O)Cc2ccccc2C1C(=O)NCc1cc(F)ccc1F (stereo not drawn) | 753
33 | O=C(NC(C(=O)N1CCCc2ccccc21)c1ccccc1)C1CC(=O)N(c2ccccc2)C1 (stereo not drawn) | 951
34 | Cc1nn(-c2ccc(Cl)nn2)c2c1CCC2 | 946
35 | Cc1ccc(-c2noc(-c3ccc(=O)n(Cc4cccc(F)c4)n3)n2)cc1 | 1150
36 | CCOC(=O)c1c(CN(C)C)n(-c2ccccc2)c2cc(-c3cccnc3)c(O)cc12 | 576
37 | O=C(Nc1ccc(OCc2nnc(-c3ccccc3)o2)cc1)c1ccnc(Cl)c1 | 908
38 | COc1ccc(-c2c(C(=O)O)nnn2-c2ccc3c(c2)OCO3)cc1 | 745
39 | COCC(=O)N1CCC2(CC1)Nc1ccc(C)c(C)c1-n1cccc12 | 823
40 | O=C(CSc1nnc(Cc2ccccc2)o1)Nc1nc(-c2ccccc2)cs1 | 936
41 | C=CCN1CCc2cc(O)c(O)cc2C(c2ccccc2)C1 (stereo not drawn) | 652
42 | Cc1ccc(-c2cn3c(CC(=O)NCc4cccs4)csc3n2)cc1C | 799
43 | Cc1ccc(NC(=O)N2CCc3cn(C)c4cccc(c34)C2)c(C)c1 | 980
44 | CCc1cccc(C)c1Nc1c(-c2ccccc2)nc2nc(C)cc(C)n12 | 816
45 | CCCC(NC(=O)c1ccc2c(c1)OCO2)C(=O)Nc1nc2ccccc2[nH]1 (stereo not drawn) | 670

Results, then the molecule that gave them:

Row | RP-LC retention time [s] | Structure (SMILES)
46 | 657 | CCC(=O)N1CCCCCCNC(=O)[C@@H]2CCC[C@@H]21
47 | 1210 | O=C(Cn1cccc1-c1nc(-c2ccccc2)no1)N1CCCc2ccccc21
48 | 594 | CC1CCCN(CCCNC(=O)CCC(=O)N2CCc3c(c(C(=O)N4CCCCC4)nn3C)C2)C1 (stereo not drawn)
49 | 794 | Cc1nc(CNC(=O)[C@H]2CCCN2S(=O)(=O)c2ccc(Br)cc2)cs1
50 | 736 | CSc1cccc(NC(=O)C2CCN(S(=O)(=O)c3cn(C)cn3)CC2)c1
51 | 1200 | O=S(=O)(NC1CCCCCC1)c1cc(-c2cc(C(F)(F)F)on2)cs1
52 | 732 | Nc1cc(C2CCN(S(=O)(=O)Cc3ccccc3)CC2)no1
53 | 743 | O=C(Nc1ccccc1)C1CC(=O)N(c2ccc3c(c2)CCN3C(=O)C2CC2)C1 (stereo not drawn)
54 | 636 | O=C(NC1CC1)c1n[nH]c2c1CCCC2
55 | 815 | CCn1cc(S(=O)(=O)N2C[C@H]3CN(S(=O)(=O)c4cccc(F)c4)C[C@@H](C2)O3)cn1
56 | 798 | Cc1oc(C2CCN(S(=O)(=O)c3cccc(F)c3)CC2)nc1C(=O)N(C)C
57 | 854 | CC(C)NC(=O)c1ccc(OCC2CCN(C(=O)c3ccc(F)cc3F)CC2)cc1
58 | 733 | COc1cc(OC)c(NC(=O)N2CC(Cc3nc(-c4cnccn4)no3)C2)cc1Cl
59 | 909 | Cc1cccc(NC(=O)Cn2c(=O)nc(N3CCC(C)CC3)c3ccccc32)c1C
60 | 701 | CC1Cc2cc(-c3cc(CC(=O)NCCc4ccc(S(N)(=O)=O)cc4)no3)ccc2O1 (stereo not drawn)
61 | 901 | CC1CCN(C(=O)CN2C(=O)CCCc3cc(S(=O)(=O)N4CCCCC4)ccc32)CC1
62 | 989 | Cc1cc(NS(=O)(=O)c2cn(CC(C)C)c3ncccc23)ccc1F
63 | 855 | COc1ccc(Cl)cc1S(=O)(=O)N1CCCC(C(=O)NCCCOC(C)C)C1 (stereo not drawn)
64 | 994 | CCCn1c(=O)sc2cc(S(=O)(=O)N3CCC(C(=O)N4CCC(C)CC4)CC3)ccc21
65 | 730 | Cc1c(C(=O)NCC(c2cccs2)N2CCCC2)oc2ccc(Cl)cc12 (stereo not drawn)
66 | 841 | COC(=O)C(Cc1ccccc1)NC(=O)N1CCCn2nc(-c3cccs3)cc2C1 (stereo not drawn)
67 | 807 | O=C(NC1CCCCC1)c1ccc2c(c1)NC(=O)C1CCCCN21 (stereo not drawn)

Row | RP-LC retention time [s] | Structure (SMILES)
68 | 742 | O=C(Nc1ccc(F)c(F)c1)C1CCc2nc(N3CCOCC3)ncc2C1 (stereo not drawn)
69 | 858 | Cc1cccc(NS(=O)(=O)c2cc3c(s2)CCN(C(=O)C2CC2)C3)c1C
70 | 743 | CCOc1ccc(S(=O)(=O)N2CCC[C@@H]2C(=O)NCc2csc(C)n2)cc1
71 | 814 | CCCCc1ccc(NC(=O)NC2CCN(c3cc(N4CCCC4)cnn3)C2)cc1 (stereo not drawn)
72 | 618 | CCCN1CCN(c2cc(C(=O)O)c3cc(NS(=O)(=O)c4cc(F)ccc4F)ccc3n2)CC1
73 | 691 | CN1C(=O)[C@H]2CN(Cc3ccccc3OC(F)(F)F)C[C@H]2C1=O
74 | 807 | O=C(c1cccc(F)c1)N1CCC(n2nc(-c3ccsc3)ccc2=O)CC1
75 | 1180 | Cc1ccc(Cl)cc1-n1ncc2c(=O)n(Cc3nc(-c4cccc(C(F)(F)F)c4)no3)cnc21
76 | 693 | CCCNc1cc(N2CCC(CCC(=O)NCCC(C)C)CC2)ncn1
77 | 1020 | CCc1nn2c(CNS(=O)(=O)c3ccc4c(c3)CCC4)c(-c3ccccc3)nc2s1
78 | 849 | Cc1ccc(-c2cc3c(N4CCC(C(=O)NC5CCCC5)CC4)nccn3n2)c(C)c1
79 | 667 | Cc1csc(-c2cc(S(=O)(=O)NCCCN3CCOCC3)cn2CC(=O)N2CCCCC2)n1
80 | 594 | CCCCN(C)Cc1nc(-c2ccc(N3CCOCC3)nc2)no1
81 | 865 | c1cc2c(cc1-c1nnc(C3CCC3)o1)OCO2
82 | 728 | Cc1c(C(=O)N2CCC(C(=O)N3CC=C(c4ccccc4)CC3)CC2)sc2nc[nH]c(=O)c12
83 | 1160 | CCCN1C(=O)COc2ccc(-c3csc(NC(=O)c4cccc(Br)c4)n3)cc21
84 | 632 | O=C(NC1CCCC1)C1CCN(C(=O)c2cccn2-c2cccnc2)CC1
85 | 684 | Cc1noc(COC2CCCN(C(=O)NCc3ccccc3)C2)n1 (stereo not drawn)
86 | 880 | Cc1nc(-c2ccccc2F)sc1C(=O)N1CCCC1
87 | 599 | O=C1CCCN1CCCN1C(=O)[C@H]2CN(Cc3ccc(F)c(Cl)c3)C[C@H]2C1=O
88 | 654 | COc1ccc(S(=O)(=O)N2CCN(CCc3cn(C)c4ncccc34)CC2)cc1Cl
